Experiment: antioxidant activity in β-carotene-linoleate system (bleaching of β-carotene)
Format: biochemical
Conditions: for bleaching time of β-carotene: different concentrations, controls (no additive) decolorized within 120 min; for antioxidant activity: 120 min incubation at 50° C.
Procedure: In another embodiment of the present invention, evaluation of the antioxidant activity of flavidin has been carried out employing the procedure of Hiddgi et. al. (Phytochem, 37, 1585, 1994) with minor modifications said method comprises the following steps: […]
i) preparing assay reagent of β-carotene in chloroform by mixing linoleic acid and 200 mg of Tween 40 (polyoxyethylene sorbitan monopalmitate), ii) warming polyoxyethylene sorbitan monopalmitate (Tween 40) at a temperature of about 50° C. in a water bath, iii) removing chloroform from assay reagent at a temperature of about 40° C. under vacuum using a rotary evaporator, iv) diluting the resulting solution with triple distilled water and mixing the resulting emulsion well for one minute, v) further diluting the resulting emulsion with oxygenated water, vi) transferring aliquots of the reagent as in step (v) into tubes containing 0.2 ml of desired amount of antioxidant in ethanol, vii) keeping a control of 0.2 ml of ethanol and 4 ml of reagent as prepared in step (v). viii) immediately taking optical density of all sample (t=0) and also taking the O.D at 15 min. interval for 2 hr. (t=120), ix) incubating the tubes in water bath at a temperature of about 50° C. between each measurement taken, and x) measuring the color till the color of β-carotene disappears.
The procedure of Hiddgo et al., (Phytochemistry, 37, 1585, 1994) was followed for testing of antioxidant activity of the flavidin with minor modification. The assay reagent was prepared as follows: 0.2 mg of β-carotene in 0.5 ml of chloroform was added to 20 mg of linoleic acid and 200 mg of Tween 40 (polyoxyethylene sorbitan monopalmitate) were mixed. Tween 40 was warmed in a water bath at 50° C. before use. The chloroform was removed at 40° C. under vacuum using a rotary evaporator. The resulting solution was immediately diluted with 10 ml of triple-distilled water and the emulsion was mixed well for 1 min. The emulsion was further diluted with 40 ml oxygenated water. Four ml aliquots of this reagent were transferred into different tubes containing 0.2 ml of the desired amount of antioxidant in ethanol. A control consisting of 0.2 ml of ethanol and 4 ml of emulsion was prepared. Optical density of all samples were taken immediately (t=0) and at 15 min intervals for 2 h (t=120). The tubes were placed in a water bath at 50° C. between measurements. All determinations were preformed in duplicate. Measurement of color was recorded until the color of β-carotene disappears.
The antioxidant activity (AA) of the isolated compound was evaluated in terms of bleaching the β-carotene using the formula of Hiddgo et al., (Phytochemistry, 37, 1585, 1994). AA=100[1−(Ao−At)/(A^oo−A^ot)] where Ao and A^o are the absorbance measured at the beginning of the incubation for flavidin and the control, respectively, and At and A^ot are the absorbance measured in the presence and absence of the flavidin after incubation for 120 min.

Row | SMILES | bleaching time of β-carotene | antioxidant activity (10 ppm) | antioxidant activity (25 ppm) | antioxidant activity (50 ppm, maximum activity)
1 | COc1ccc(O)c(C(C)(C)C)c1 [BHA, butylated hydroxy anisole, reference compound] | enhanced | – | – | –
2 | Oc1cc2c3c(c1)COc1cc(O)cc(c1-3)CC2 [flavidin, 2,7-dihydroxy 9,10-dihydrophenanthro-4,5 bcd-pyran] | enhanced | 68.5% | 79% | 90.2%

From patent US6503552B1, “Adding flavidin to a composition as an anti-oxidant” (Council of Scientific and Industrial Research, priority 2000, dated 2003)
